Results published in patent publication US7868204B2, “Inhibitors of histone deacetylase” (MethylGene Inc., priority 2001, dated 2011).

Tests used:
[1] = target: T1, cloned recombinant human HDAC-1 (Homo sapiens, UniProt Q13547); assay: Human HDAC-1 enzyme inhibition, Assay 1 ([3H]-acetylated histone substrate, scintillation counting); assay type: biochemical; details: Table 5d; read-out: HDAC-1 IC50
T1 construct: made in house; host or cells: Baculovirus insect cell expression system
How it was run: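 Activity read as [3H]-acetic acid liberated from labeled substrate, ethyl acetate-extracted and scintillation-counted. Compounds preincubated 30 min at 4° C. with baculovirus-expressed, purified human HDAC-1. Dose-response curves give IC50 as concentration producing fifty percent of maximal inhibition.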

HCT116 cells = assay: MTT assay; assay type: cell-based; details: Homo sapiens, HCT-116, Table 5d; HCT116 cells, 72 hours
How it was run: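 Read-out: MTT (0.5 mg/ml final, 4 h) after solubilization in 50% DMF/20% SDS, pH 4.7, with OD translated into cell number via the line's growth curve. Compound treatment lasted 72 h at 37 °C in 5% CO2, starting a day after plating.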

T1 sequence (Q13547 whole entry): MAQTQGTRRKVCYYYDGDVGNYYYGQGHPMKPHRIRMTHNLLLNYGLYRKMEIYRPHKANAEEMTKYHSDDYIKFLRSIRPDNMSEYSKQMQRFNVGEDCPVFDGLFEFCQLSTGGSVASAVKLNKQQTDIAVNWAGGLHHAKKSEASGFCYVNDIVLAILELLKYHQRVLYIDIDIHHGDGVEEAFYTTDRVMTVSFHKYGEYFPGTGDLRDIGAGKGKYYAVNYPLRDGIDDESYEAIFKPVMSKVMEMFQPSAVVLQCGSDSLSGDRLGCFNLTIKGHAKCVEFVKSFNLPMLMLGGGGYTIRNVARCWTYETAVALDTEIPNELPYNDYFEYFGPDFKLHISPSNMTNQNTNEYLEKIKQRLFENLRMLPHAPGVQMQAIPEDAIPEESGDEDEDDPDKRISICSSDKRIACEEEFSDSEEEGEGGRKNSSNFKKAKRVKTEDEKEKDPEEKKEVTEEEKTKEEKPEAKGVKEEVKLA

| IC50 [1] [µM] | IC50 (HCT116 cells) [µM] | SMILES |
| --- | --- | --- |
| 8 | 9 | Nc1ccccc1NC(=O)/C=C/c1ccc(CNc2cccc(CO)c2)cc1 [Cpd 530, N-(2-Amino-phenyl)-3-{4-[(3-hydroxymethyl-phenylamino)-methyl]-phenyl}-acrylamide] |
| 3 | 5 | N#Cc1cccc(NCc2ccc(C=CC(=O)Nc3ccccc3N)cc2)c1 [Cpd 532] |
| 5 | 11 | CC(=O)NCc1cccc(NCc2ccc(/C=C/C(=O)Nc3ccccc3N)cc2)c1 [Cpd 533, 3-(4-{[3-(Acetylamino-methyl)-phenylamino]-methyl}-phenyl)-N-(2-amino-phenyl)-acrylamide] |
| 3 | 5 | Nc1ccccc1NC(=O)/C=C/c1ccc(CNc2ccc([N+](=O)[O-])c(C(F)(F)F)c2)cc1 [Cpd 534, N-(2-Amino-phenyl)-3-{4[(4-nitro-3-trifluoromethyl-phenylamino)-methyl]-phenyl}-acrylamide] |
| 4 | 6 | Nc1ccccc1NC(=O)/C=C/c1ccc(CNc2cc(Cl)cc(Cl)c2)cc1 [Cpd 535, N-(2-Amino-phenyl)-3-{4-[(3,5-dichloro-phenylamino)-methyl]-phenyl}-acrylamide] |
| 18 | 9 | COc1cc(/C=C/c2ccc(/C=C/C(=O)Nc3ccccc3N)cc2)cc(OC)c1OC [Cpd 536, N-(2-Amino-phenyl)-3-{4-[2-(3,4,5-trimethoxy-phenyl)-vinyl]-phenyl}-acrylamide] |
| 4 | 12 | Nc1ccccc1NC(=O)/C=C/c1ccc(CNc2cccc(S(N)(=O)=O)c2)cc1 [Cpd 538, N-(2-Amino-phenyl)-3-{4-[(3-sulfamoyl-phenylamino)-methyl]-phenyl}-acrylamide] |
| 2 | 10 | Nc1ccccc1NC(=O)/C=C/c1ccc(CNc2cccc(S(=O)(=O)NCCCN3CCOCC3)c2)cc1 [Cpd 539, N-(2-Amino-phenyl)-3-(4-{[3-(3-morpholin-4-yl-propylsulfamoyl)-phenylamino]-methyl}-phenyl)-acrylamide] |
| 10 | 10 | COc1cc(CCc2ccc(/C=C/C(=O)Nc3ccccc3N)cc2)cc(OC)c1OC [Cpd 540, N-(2-Amino-phenyl)-3-{4-[2-(3,4,5-trimethoxy-phenyl)-ethyl]-phenyl}-acrylamide] |
| 15 | > 25 | Nc1ccccc1NC(=O)/C=C/c1ccc(CNc2cccc(-c3nnn[nH]3)c2)cc1 [Cpd 543, N-(2-Amino-phenyl)-3-(4-{[3-(1H-tetrazol-5-yl)-phenylamino]-methyl}-phenyl)-acrylamide] |
| 17 | 45 | Nc1ccccc1NC(=O)/C=C/c1ccc(CNc2ccc(Cc3nnn[nH]3)cc2)cc1 [Cpd 544, N-(2-Amino-phenyl)-3-(4-{[4-(1H-tetrazol-5-ylmethyl)-phenylamino]-methyl}-phenyl)-acrylamide] |
| 2 | 12 | Nc1ccccc1NC(=O)/C=C/c1ccc(CNc2ccc(Br)cc2)cc1 [Cpd 545, N-(2-Amino-phenyl)-3-{4[(4-bromo-phenylamino)-methyl]-phenyl}-acrylamide] |
| 3 | 10 | Nc1ccccc1NC(=O)/C=C/c1ccc(CNc2cccc(Br)c2)cc1 [Cpd 546, N-(2-Amino-phenyl)-3-{4-[(3-bromo-phenylamino)-methyl]-phenyl}-acrylamide] |
| 4 | 8 | Nc1ccccc1NC(=O)/C=C/c1ccc(CNc2ccc(I)cc2)cc1 [Cpd 547, N-(2-Amino-phenyl)-3-{4-[(4-iodo-phenylamino)-methyl]-phenyl}-acrylamide] |
| 3 | 9 | Nc1ccccc1NC(=O)/C=C/c1ccc(CNc2cccc(I)c2)cc1 [Cpd 548, N-(2-Amino-phenyl)-3-{4-[(3-iodo-phenylamino)-methyl]-phenyl}-acrylamide] |
| 4 | 19 | Nc1ccccc1NC(=O)/C=C/c1ccc(CNc2cccc(OCCO)c2)cc1 [Cpd 549, N-(2-Amino-phenyl)-3-(4-{[3-(2-hydroxy-ethoxy)-phenylamino]-methyl}-phenyl)-acrylamide] |
| 4 | 15 | Nc1ccccc1NC(=O)/C=C/c1ccc(CNc2ccc([N+](=O)[O-])cc2)cc1 [Cpd 550, N-(2-Amino-phenyl)-3-{4-[(4-nitro-phenylamino)-methyl]-phenyl}-acrylamide] |
| 24 | 9 | Nc1ccccc1NC(=O)/C=C/c1ccc(CNc2cccc([N+](=O)[O-])c2)cc1 [Cpd 551, N-(2-Amino-phenyl)-3-{4-[(3-nitro-phenylamino)-methyl]-phenyl}-acrylamide] |
| 4 | 22 | Nc1ccccc1NC(=O)/C=C/c1ccc(CNc2ccc(Cl)cc2)cc1 [Cpd 552, N-(2-Amino-phenyl)-3-{4-[(4-chloro-phenylamino)-methyl]-phenyl}-acrylamide] |
| 4 | 12 | Nc1ccccc1NC(=O)/C=C/c1ccc(CNc2cccc(Cl)c2)cc1 [Cpd 553, N-(2-Amino-phenyl)-3-{4-[(3-chloro-phenylamino)-methyl]-phenyl}-acrylamide] |
| 15 | 12 | Nc1ccccc1NC(=O)/C=C/c1ccc(CNc2ccc(F)cc2)cc1 [Cpd 554, N-(2-Amino-phenyl)-3-{4-[(4-fluoro-phenylamino)-methyl]-phenyl}-acrylamide] |
| 14 | 7 | CSc1cccc(NCc2ccc(/C=C/C(=O)Nc3ccccc3N)cc2)c1 [Cpd 555, N-(2-Amino-phenyl)-3-{4-[(3-methylsulfanyl-phenylamino)-methyl]-phenyl}-acrylamide] |
| 4 | 6 | Nc1ccccc1NC(=O)/C=C/c1ccc(CNc2ccc(Br)cn2)cc1 [Cpd 557, N-(2-Amino-phenyl)-3-{4-[(5-bromo-pyridin-2-ylamino)-methyl]-phenyl}acrylamide] |
| 7 | 10 | Nc1ccccc1NC(=O)/C=C/c1ccc(CNc2cccc3ccccc23)cc1 [Cpd 558, N-(2-Amino-phenyl)-3-[4-(naphthalen-1-ylaminomethyl)-phenyl]-acrylamide] |
| 4 | 11 | Nc1ccccc1NC(=O)/C=C/c1ccc(CNc2cccc(F)c2)cc1 [Cpd 559, N-(2-Amino-phenyl)-3-{4-[(3-fluoro-phenylamino)-methyl]-phenyl}-acrylamide] |
| 21 | 6 | COc1cc(/C=C/C(=O)Nc2ccccc2N)cc(OC)c1CNc1cc(OC)c(OC)c(OC)c1 [Cpd 560] |
| > 25 | > 25 | COc1cc(NCc2ccc(/C=C/C(=O)Nc3cccc(O)c3N)cc2)cc(OC)c1OC [Cpd 561] |
| 5 | 5 | COc1ccc(NCc2ccc(/C=C/C(=O)Nc3ccccc3N)cc2)c(OC)c1OC [Cpd 562, N-(2-Amino-phenyl)-3-[4-[(2,3,4-trimethoxy-phenylamino)-methyl]-phenyl}-acrylamide] |
| 24 | 6 | COc1ccc(NCc2ccc(/C=C/C(=O)Nc3ccccc3N)cc2)cc1CNc1cc(OC)c(OC)c(OC)c1 [Cpd 563, N-(2-Amino-phenyl)-3-[4-([4-methoxy-3-[(3,4,5-trimethoxy-phenylamino)-methyl]-phenylamino}-methyl)-phenyl]-acrylamide] |
| > 25 | > 25 | COc1cc(NCc2ccc(/C=C/C(=O)Nc3cccc(N)c3N)cc2)cc(OC)c1OC [Cpd 564] |
